Data as given in ChEMBL document CHEMBL2380212, “Synthesis, single crystal and antitumor activities of benzimidazole-quinazoline hybrids” (Bioorg Med Chem Lett, 2013).

Legend:
[1] = n-Octanol-phosphate buffer partition coefficient, log P of the compound at pH 7.4 by shake flask method; type: physicochemical
MDA-MB-468 = assay: Cytotoxicity against human MDA-MB-468 cells at 10 uM after 48 hrs by SRB assay; type: functional; conditions: MDA-MB-468, 48 h, read-out: GI
Hs-578T = assay: Cytotoxicity against human Hs578T cells at 10 uM after 48 hrs by SRB assay; type: functional; conditions: read-out: GI
MCF7 = assay: Cytotoxicity against human MCF7 cells at 10 uM after 48 hrs by SRB assay; type: functional; conditions: MCF7, 48 h, read-out: GI
MDA-MB-231 = assay: Cytotoxicity against human MDA-MB-231 cells at 10 uM after 48 hrs by SRB assay; type: functional; conditions: MDA-MB-231, 48 h, read-out: GI
DU-145 = assay: Cytotoxicity against human DU145 cells at 10 uM after 48 hrs by SRB assay; type: functional; conditions: DU-145, 48 h, read-out: GI
UO-31 = assay: Cytotoxicity against human UO31 cells at 10 uM after 48 hrs by SRB assay; type: functional; conditions: UO-31, 48 h, read-out: GI
PC-3 = assay: Cytotoxicity against human PC3 cells at 10 uM after 48 hrs by SRB assay; type: functional; conditions: PC-3, 48 h, read-out: GI
SN12C = assay: Cytotoxicity against human SN12C cells at 10 uM after 48 hrs by SRB assay; type: functional; conditions: read-out: GI
CAKI-1 = assay: Cytotoxicity against human Caki1 cells at 10 uM after 48 hrs by SRB assay; type: functional; conditions: CAKI-1, 48 h, read-out: GI
ACHN = assay: Cytotoxicity against human ACHN cells at 10 uM after 48 hrs by SRB assay; type: functional; conditions: read-out: GI
786-0 = assay: Cytotoxicity against human 786-0 cells at 10 uM after 48 hrs by SRB assay; type: functional; conditions: 786-0, 48 h, read-out: GI
SK-OV-3 = assay: Cytotoxicity against human SKOV3 cells at 10 uM after 48 hrs by SRB assay; type: functional; conditions: SK-OV-3, 48 h, read-out: GI
NCI/ADR-RES = assay: Cytotoxicity against human NCI/ADR-RES cells at 10 uM after 48 hrs by SRB assay; type: functional; conditions: read-out: GI
OVCAR-5 = assay: Cytotoxicity against human OVCAR5 cells at 10 uM after 48 hrs by SRB assay; type: functional; conditions: OVCAR-5, 48 h, read-out: GI
OVCAR-3 = assay: Cytotoxicity against human OVCAR3 cells at 10 uM after 48 hrs by SRB assay; type: functional; conditions: OVCAR-3, 48 h, read-out: GI
UACC-257 = assay: Cytotoxicity against human UACC257 cells at 10 uM after 48 hrs by SRB assay; type: functional; conditions: UACC-257, 48 h, read-out: GI
SK-MEL-28 = assay: Cytotoxicity against human SK-MEL-28 cells at 10 uM after 48 hrs by SRB assay; type: functional; conditions: SK-MEL-28, 48 h, read-out: GI
SK-MEL-2 = assay: Cytotoxicity against human SK-MEL-2 cells at 10 uM after 48 hrs by SRB assay; type: functional; conditions: SK-MEL-2, 48 h, read-out: GI
M14 = assay: Cytotoxicity against human M14 cells at 10 uM after 48 hrs by SRB assay; type: functional; conditions: M14, 48 h, read-out: GI
U-251 = assay: Cytotoxicity against human U251 cells at 10 uM after 48 hrs by SRB assay; type: functional; conditions: U-251, 48 h, read-out: GI
LOX IMVI = assay: Cytotoxicity against human LOXIMVI cells at 10 uM after 48 hrs by SRB assay; type: functional; conditions: read-out: GI
SNB-75 = assay: Cytotoxicity against human SNB75 cells at 10 uM after 48 hrs by SRB assay; type: functional; conditions: SNB-75, 48 h, read-out: GI
SNB-19 = assay: Cytotoxicity against human SNB19 cells at 10 uM after 48 hrs by SRB assay; type: functional; conditions: SNB-19, 48 h, read-out: GI
SF-295 = assay: Cytotoxicity against human SF295 cells at 10 uM after 48 hrs by SRB assay; type: functional; conditions: SF-295, 48 h, read-out: GI
SF-539 = assay: Cytotoxicity against human SF539 cells at 10 uM after 48 hrs by SRB assay; type: functional; conditions: SF-539, 48 h, read-out: GI
SF-268 = assay: Cytotoxicity against human SF268 cells at 10 uM after 48 hrs by SRB assay; type: functional; conditions: SF-268, 48 h, read-out: GI
SW-620 = assay: Cytotoxicity against human SW620 cells at 10 uM after 48 hrs by SRB assay; type: functional; conditions: SW-620, 48 h, read-out: GI
KM12 = assay: Cytotoxicity against human KM12 cells at 10 uM after 48 hrs by SRB assay; type: functional; conditions: KM12, 48 h, read-out: GI
HT-29 = assay: Cytotoxicity against human HT-29 cells at 10 uM after 48 hrs by SRB assay; type: functional; conditions: HT-29, 48 h, read-out: GI
HCT-15 = assay: Cytotoxicity against human HCT15 cells at 10 uM after 48 hrs by SRB assay; type: functional; conditions: HCT-15, 48 h, read-out: GI
HCT-116 = assay: Cytotoxicity against human HCT116 cells at 10 uM after 48 hrs by SRB assay; type: functional; conditions: HCT-116, 48 h, read-out: GI
COLO 205 = assay: Cytotoxicity against human COLO205 cells at 10 uM after 48 hrs by SRB assay; type: functional; conditions: COLO 205, 48 h, read-out: GI
NCI-H322M = assay: Cytotoxicity against human NCI-H322M cells at 10 uM after 48 hrs by SRB assay; type: functional; conditions: read-out: GI
NCI-H226 = assay: Cytotoxicity against human NCI-H226 cells at 10 uM after 48 hrs by SRB assay; type: functional; conditions: NCI-H226, 48 h, read-out: GI
NCI-H23 = assay: Cytotoxicity against human NCI-H23 cells at 10 uM after 48 hrs by SRB assay; type: functional; conditions: NCI-H23, 48 h, read-out: GI
HOP-62 = assay: Cytotoxicity against human HOP62 cells at 10 uM after 48 hrs by SRB assay; type: functional; conditions: HOP-62, 48 h, read-out: GI
[2] = Cytotoxicity against human EKVX cells at 10 uM after 48 hrs by SRB assay; type: functional; conditions: read-out: GI
A549 = assay: Cytotoxicity against human A549 cells at 10 uM after 48 hrs by SRB assay; type: functional; conditions: A549, 48 h, read-out: GI
SR = assay: Cytotoxicity against human SR cells at 10 uM after 48 hrs by SRB assay; type: functional; conditions: read-out: GI
RPMI-8226 = assay: Cytotoxicity against human RPMI8226 cells at 10 uM after 48 hrs by SRB assay; type: functional; conditions: RPMI-8226, 48 h, read-out: GI
K562 = assay: Cytotoxicity against human K562 cells at 10 uM after 48 hrs by SRB assay; type: functional; conditions: K562, 48 h, read-out: GI
HL-60(TB) = assay: Cytotoxicity against human HL-60(TB) cells at 10 uM after 48 hrs by SRB assay; type: functional; conditions: HL-60, 48 h, read-out: GI

SMILES: C=CCn1c(C)nc2cc(Nc3nc(Cl)nc4ccccc34)ccc21
- logD [1]: 1.17
- inhibition of growth at 10 µM (MDA-MB-468): 19.1%
- inhibition of growth at 10 µM (Hs-578T): < 10%
- inhibition of growth at 10 µM (MCF7): < 10%
- inhibition of growth at 10 µM (MDA-MB-231): 14.5%
- inhibition of growth at 10 µM (DU-145): < 10%
- inhibition of growth at 10 µM (UO-31): 10.3%
- inhibition of growth at 10 µM (PC-3): 19.5%
- inhibition of growth at 10 µM (SN12C): < 10%
- inhibition of growth at 10 µM (CAKI-1): 16.9%
- inhibition of growth at 10 µM (ACHN): < 10%
- inhibition of growth at 10 µM (786-0): < 10%
- inhibition of growth at 10 µM (SK-OV-3): < 10%
- inhibition of growth at 10 µM (NCI/ADR-RES): 10.5%
- inhibition of growth at 10 µM (OVCAR-5): < 10%
- inhibition of growth at 10 µM (OVCAR-3): < 10%
- inhibition of growth at 10 µM (UACC-257): < 10%
- inhibition of growth at 10 µM (SK-MEL-28): < 10%
- inhibition of growth at 10 µM (SK-MEL-2): < 10%
- inhibition of growth at 10 µM (M14): < 10%
- inhibition of growth at 10 µM (U-251): < 10%
- inhibition of growth at 10 µM (LOX IMVI): < 10%
- inhibition of growth at 10 µM (SNB-75): < 10%
- inhibition of growth at 10 µM (SNB-19): < 10%
- inhibition of growth at 10 µM (SF-295): 10.3%
- inhibition of growth at 10 µM (SF-539): < 10%
- inhibition of growth at 10 µM (SF-268): < 10%
- inhibition of growth at 10 µM (SW-620): < 10%
- inhibition of growth at 10 µM (KM12): < 10%
- inhibition of growth at 10 µM (HT-29): < 10%
- inhibition of growth at 10 µM (HCT-15): < 10%
- inhibition of growth at 10 µM (HCT-116): < 10%
- inhibition of growth at 10 µM (COLO 205): < 10%
- inhibition of growth at 10 µM (NCI-H322M): < 10%
- inhibition of growth at 10 µM (NCI-H226): 17.8%
- inhibition of growth at 10 µM (NCI-H23): < 10%
- inhibition of growth at 10 µM (HOP-62): < 10%
- inhibition of growth at 10 µM [2]: 17.2%
- inhibition of growth at 10 µM (A549): < 10%
- inhibition of growth at 10 µM (SR): < 10%
- inhibition of growth at 10 µM (RPMI-8226): 22.3%
- inhibition of growth at 10 µM (K562): 21.3%
- inhibition of growth at 10 µM (HL-60(TB)): < 10%
